This note sets out measurements from ChEMBL document CHEMBL3046670, “Synthesis of Esters, Amides, N-Alkylamides and N, N-Dialkylamides of 2, 3-Dimethyl-5-(2, 5-disubstituted phenylaminocarbonyl)-6-pyrazinecarboxylic Acid and Their Phytotoxicity” (1992).

Calls of active or inactive are those of the source. The rule behind the calls is not given here.

Holding throughout (format): functional
The test system of experiment [1] is Eleusine indica. The experiment can be described thus: Inhibition of Eleusine indica seed germination at 100 ppm after 5 days relative to control. The conditions noted are these: for inhibition at 100 ppm: 120 h.
Experiment [2] relates to Lactuca sativa. Put plainly: Inhibition of Lactuca sativa longifolia Lams (lettuce) seed germination at 50 ppm after 5 days relative to control. The conditions noted are these: for inhibition at 50 ppm: 120 h.
Experiment [3] relates to Lactuca sativa. The experiment can be described thus: Inhibition of Lactuca sativa longifolia Lams (lettuce) seed germination at 100 ppm after 5 days relative to control. Particulars: for inhibition at 100 ppm: 120 h.
Experiment [4] concerns Lactuca sativa. Put plainly: Inhibition of Lactuca sativa longifolia Lams (lettuce) seed germination at 300 ppm after 5 days relative to control. Particulars: for inhibition at 300 ppm: 120 h.
A further experiment deals with Sagittaria pygmaea. Put plainly: Herbicidal activity against Sagittaria pygmaea at 50 g a.i./a measured after 3 weeks.
The subject of a further experiment is Cyperus serotinus. The experiment can be described thus: Herbicidal activity against Cyperus serotinus at 50 g a.i./a measured after 3 weeks.
Experiment [5] relates to Schoenoplectiella juncoides. Put plainly: Pre-emergence herbicidal activity against Schoenoplectiella juncoides at 50 g a.i./a measured after 3 weeks.
Another experiment has as its system Echinochloa crus-galli. The experiment can be described thus: Herbicidal activity against Echinochloa crus-galli (barnyard grass) at 50 g a.i./a measured after 2 weeks.
Experiment [6] relates to Schoenoplectiella juncoides. The experiment can be described thus: Herbicidal activity against Schoenoplectiella juncoides at 50 g a.i./a applied at one-leaf stage by foliar application measured after 3 weeks.
Another experiment concerns Oryza sativa. Put plainly: Herbicidal activity against Oryza sativa (rice) at 50 g a.i./a applied at one-leaf stage by foliar application measured after 3 weeks.
The test system of experiment [7] is Eleusine indica. The experiment can be described thus: Inhibition of Eleusine indica seed germination at 50 ppm after 5 days relative to control. The conditions noted are these: for inhibition at 50 ppm: 120 h.
Experiment [8] concerns Eleusine indica. The experiment can be described thus: Inhibition of Eleusine indica germination at 300 ppm after 5 days relative to control. The conditions noted are these: for inhibition at 300 ppm: 120 h.

What is called inhibition is the change of the read-out against control, counted positive when it falls. For `Cc1nc(C(=O)Nc2cc(Cl)ccc2Cl)c(C(=O)OC(C)C)nc1C`, the inhibition entry in the experiment on Eleusine indica [1] was “inactive”.

In the case of `CCC(C)NC(=O)c1nc(C)c(C)nc1C(=O)Nc1cc(C)ccc1C` (stereo not given), the inhibition at 50 ppm in the experiment on Lactuca sativa [2] came out at 61%; with Eleusine indica [7] it was 38%. Besides, the inhibition at 100 ppm in the experiment with Lactuca sativa [3] turned out to be 65%; in the experiment with Eleusine indica [1], 41%. In addition, the inhibition at 300 ppm in the experiment on Lactuca sativa [4] was found to be 72%; in the experiment with Eleusine indica [8], 44%. Further, the Activity in the experiment with Sagittaria pygmaea was 75%; in the experiment with Cyperus serotinus, 95%; in experiment [5], 100%; with Echinochloa crus-galli it was 70%; in experiment [6], 50%; in the experiment on Oryza sativa it was 99%.

`CCCCNC(=O)c1nc(C)c(C)nc1C(=O)Nc1cc(C)ccc1C`: the inhibition at 100 ppm with Lactuca sativa [3] was 35%; with Eleusine indica [1] it was 39%. Moreover, the inhibition at 300 ppm came out at 34% in the experiment with Lactuca sativa [4] and 40% with Eleusine indica [8]. Further, the Activity was 90% with Sagittaria pygmaea; 100% in the experiment on Cyperus serotinus; 100% in experiment [5]; 80% with Echinochloa crus-galli; 60% in [6]; 100% with Oryza sativa.

Regarding `Cc1ccc(C)c(NC(=O)c2nc(C)c(C)nc2C(=O)NCC(C)C)c1`, the results for the inhibition at 50 ppm with Lactuca sativa [2] and in the experiment on Eleusine indica [7] were 55% and 53%, respectively. For the same molecule, the inhibition at 100 ppm in the experiment on Lactuca sativa [3] worked out at 59%; in the experiment on Eleusine indica [1], 47%. Moreover, the inhibition at 300 ppm amounted to 62% with Lactuca sativa [4] and 50% in the experiment with Eleusine indica [8]. Besides, the Activity in the experiment on Sagittaria pygmaea turned out to be 95%; with Cyperus serotinus it was 100%; in experiment [5], 10%; with Echinochloa crus-galli, 90%; in experiment [6], 80%; in the experiment on Oryza sativa it was 99%.

On to `Cc1ccc(C)c(NC(=O)c2nc(C)c(C)nc2C(=O)OCC(C)C)c1`, for which the inhibition entry in the experiment with Lactuca sativa [2], in the experiment on Lactuca sativa [3], in the experiment with Lactuca sativa [4], in the experiment with Eleusine indica [7], in the experiment with Eleusine indica [1] and with Eleusine indica [8] was “inactive” each time.

Take `CCC(C)OC(=O)c1nc(C)c(C)nc1C(=O)Nc1cc(C)ccc1C` (stereo not given): the inhibition at 100 ppm worked out at 32% in the experiment with Lactuca sativa [3] and 13% in the experiment with Eleusine indica [1]. Besides, the inhibition at 300 ppm in the experiment with Lactuca sativa [4] stood at 36%; in the experiment with Eleusine indica [8], 15%.

As to `Cc1ccc(C)c(NC(=O)c2nc(C)c(C)nc2C(=O)NCCC(C)C)c1`, the inhibition at 50 ppm amounted to 43% in the experiment on Lactuca sativa [2] and 32% with Eleusine indica [7]. Also, the inhibition at 100 ppm with Lactuca sativa [3] amounted to 41%; in the experiment on Eleusine indica [1], 34%. In addition, the inhibition at 300 ppm in the experiment with Lactuca sativa [4] is 47%; in the experiment on Eleusine indica [8], 40%. Also, the Activity in the experiment with Sagittaria pygmaea is 85%; with Cyperus serotinus, 80%; in experiment [5], 100%; in the experiment with Echinochloa crus-galli, 70%; in [6], 20%; with Oryza sativa it was 99%.

For the molecule `Cc1ccc(C)c(NC(=O)c2nc(C)c(C)nc2C(=O)OCCC(C)C)c1`, the inhibition entry in the experiment with Lactuca sativa [2], in the experiment with Lactuca sativa [3], with Lactuca sativa [4], in the experiment on Eleusine indica [7], in the experiment on Eleusine indica [1] and in the experiment with Eleusine indica [8] was “inactive” each time.

In the case of `CCCC(C)OC(=O)c1nc(C)c(C)nc1C(=O)Nc1cc(C)ccc1C` (stereo not given), the inhibition entry in the experiment with Lactuca sativa [2] and with Eleusine indica [7] was “inactive” in each case. In addition, the inhibition at 100 ppm in the experiment on Lactuca sativa [3] amounted to 44%; in the experiment on Eleusine indica [1], 32%. Also, the results for the inhibition at 300 ppm in the experiment on Lactuca sativa [4] and with Eleusine indica [8] were 50% and 33%, respectively.

`CCCOC(=O)c1nc(C)c(C)nc1C(=O)Nc1cc(Cl)ccc1Cl`: in the experiment on Eleusine indica [1], the inhibition result is “inactive”.

For the molecule `CCCCN(CCCC)C(=O)c1nc(C)c(C)nc1C(=O)Nc1cc(C)ccc1C`, the inhibition result in the experiment on Lactuca sativa [2], in the experiment on Lactuca sativa [3], in the experiment with Lactuca sativa [4], with Eleusine indica [7], with Eleusine indica [1] and in the experiment on Eleusine indica [8] was “inactive” throughout.

Regarding `CCCCOC(=O)c1nc(C)c(C)nc1C(=O)Nc1cc(C)ccc1C`, the inhibition entry in the experiment on Lactuca sativa [2], in the experiment on Lactuca sativa [3], in the experiment with Lactuca sativa [4], with Eleusine indica [7], with Eleusine indica [1] and with Eleusine indica [8] was “inactive” in each case.

As for `Cc1ccc(C)c(NC(=O)c2nc(C)c(C)nc2C(=O)OC(C)C)c1`, 100 ppm produced 20% inhibition with Eleusine indica [1].

In turn, `Cc1ccc(C)c(NC(=O)c2nc(C)c(C)nc2C(N)=O)c1` gave an inhibition at 100 ppm in the experiment with Eleusine indica [1] of 20%.

As for `CCN(CC)C(=O)c1nc(C)c(C)nc1C(=O)Nc1cc(C)ccc1C`, the inhibition entry in the experiment on Lactuca sativa [2], in the experiment with Lactuca sativa [3], in the experiment with Lactuca sativa [4], in the experiment on Eleusine indica [7], in the experiment with Eleusine indica [1] and in the experiment with Eleusine indica [8] was “inactive” throughout.

Regarding `CCCN(CCC)C(=O)c1nc(C)c(C)nc1C(=O)Nc1cc(C)ccc1C`, the inhibition entry in the experiment with Lactuca sativa [2], with Lactuca sativa [3], in the experiment on Lactuca sativa [4], in the experiment with Eleusine indica [7], with Eleusine indica [1] and in the experiment on Eleusine indica [8] was “inactive” each time.

For the molecule `CCOC(=O)c1nc(C)c(C)nc1C(=O)Nc1cc(Cl)ccc1Cl`, the inhibition entry in the experiment on Eleusine indica [1] is “inactive”.

For `CCCNC(=O)c1nc(C)c(C)nc1C(=O)Nc1cc(C)ccc1C`, the inhibition at 50 ppm with Lactuca sativa [2] was found to be 43%; in the experiment with Eleusine indica [7] it was 42%. Further, the inhibition at 100 ppm with Lactuca sativa [3] was found to be 56%; in the experiment with Eleusine indica [1], 47%. Further, the inhibition at 300 ppm in the experiment on Lactuca sativa [4] is 54%; in the experiment on Eleusine indica [8], 47%. Also, the Activity with Sagittaria pygmaea amounted to 0%; in the experiment with Cyperus serotinus it was 90%; in [5] it was 80%; in the experiment on Echinochloa crus-galli it was 50%; in [6] it was 40%; with Oryza sativa, 95%.

Turning to `CCCCCN(CCCCC)C(=O)c1nc(C)c(C)nc1C(=O)Nc1cc(C)ccc1C`, the inhibition result with Lactuca sativa [2], in the experiment with Lactuca sativa [3], with Lactuca sativa [4], with Eleusine indica [7], in the experiment with Eleusine indica [1] and in the experiment on Eleusine indica [8] was “inactive” throughout.

Regarding `CCCCCOC(=O)c1nc(C)c(C)nc1C(=O)Nc1cc(C)ccc1C`, the inhibition result with Lactuca sativa [2], with Lactuca sativa [3], with Lactuca sativa [4], in the experiment on Eleusine indica [7], with Eleusine indica [1] and with Eleusine indica [8] was “inactive” each time.

`Cc1ccc(C)c(NC(=O)c2nc(C)c(C)nc2C(=O)NC(C)C)c1`: the inhibition at 50 ppm turned out to be 58% with Lactuca sativa [2] and 30% in the experiment with Eleusine indica [7]. For the same molecule, the results for the inhibition at 100 ppm with Lactuca sativa [3] and in the experiment with Eleusine indica [1] were 66% and 30%, respectively. The inhibition at 300 ppm in the experiment on Lactuca sativa [4] is 68%; in the experiment on Eleusine indica [8], 36%. Besides, the Activity in the experiment on Sagittaria pygmaea was 0%; in the experiment with Cyperus serotinus it was 0%; in [5], 50%; in the experiment with Echinochloa crus-galli, 0%; in experiment [6], 30%; with Oryza sativa, 70%.

For `Cc1ccc(C)c(NC(=O)c2nc(C)c(C)nc2C(=O)N(C)C)c1`, the inhibition entry with Lactuca sativa [2], in the experiment on Lactuca sativa [3], in the experiment with Lactuca sativa [4], in the experiment on Eleusine indica [7], in the experiment on Eleusine indica [1] and with Eleusine indica [8] was “inactive” each time.

`COC(=O)c1nc(C)c(C)nc1C(=O)Nc1cc(Cl)ccc1Cl`: the inhibition result with Eleusine indica [1] was “inactive”.
